{"source": "paper PMC11433535", "about": "(Life, 2024)", "key": {"in vitro": {"assay": "in vitro", "type": "cell-based", "conditions": "fathead minnow (Pimephales promelas)", "procedure": "In brief, 96-well plates were seeded with the EPC cells at a density of 2 × 10^4 cells/well and incubated for 24 h at 25 °C. The growth medium was then replaced with acyclovir-containing medium at concentrations of 3200 µM, 1600 µM, 800 µM, 400 µM, 200 µM, 100 µM, and 50 µM."}, "[1]": {"tested_on": "European catfish virus (ECV)", "assay": "Endpoint virus titration (TCID50/mL) in EPC cells, ECV", "type": "cell-based", "conditions": "800 µM acyclovir, 10 days, vs control", "procedure": "(§1) Epithelioma Papulosum Cyprini (EPC; ATCC CRL-2872) cells were grown and handled as described in detail previously. IcHV-2 originates from Italy, while the ECV strain (14612/2012) was isolated from the brown bullhead in Hungary. The Frog Virus 3 strain Granoff (FV3, ATCC VR-567) was originally isolated from a leopard frog (Lithobates pipiens) in the USA in 1965 [38] and was propagated on various fish and reptilian cell lines before it was added to our collection by courtesy of Rachel Marschang (University of Hohenheim, Stuttgart, Germany). All three viruses were cultivated in the EPC cell line at 25 °C. The tissue culture infectious dose (TCID50/mL) was calculated by the Reed and Muench method.\n(§2) The EPC cells were seeded into 96-well plates (2 × 10^4 cells/well) and incubated overnight at 25 °C. […] The titers were read after 10 days of incubation at 25 °C."}, "[2]": {"tested_on": "Ictalurid herpesvirus 2 (IcHV-2)", "assay": "Endpoint virus titration (TCID50/mL) in EPC cells, IcHV-2", "type": "cell-based", "conditions": "800 µM acyclovir, 10 days, vs control", "procedure": "as §1, §2"}, "Frog virus 3 (FV3) [3]": {"tested_on": "Frog virus 3 (FV3)", "assay": "Endpoint virus titration (TCID50/mL) in EPC cells, FV3", "type": "cell-based", "conditions": "800 µM acyclovir, 10 days, vs control", "procedure": "as §1, §2"}, "[4]": {"tested_on": "European catfish virus (ECV)", "assay": "qPCR of viral DNA load in infected EPC cells, ECV", "type": "cell-based", "conditions": "800 µM acyclovir, MOI 0.05, 48 h, normalized to beta-actin", "procedure": "(§3) The EPC cells were also seeded in 24-well plates (2 × 10^5 cells/well) and incubated overnight at 25 °C. […] The plates were incubated for 48 h at 25 °C. Afterwards, the plates were frozen at −20 °C, followed by nucleic acid extraction and qPCR analysis.\n(§4) Extraction of viral DNA was carried out with the Viral Nucleic Acid Extraction Kit II (Geneaid, New Taipei City, China) according to the manufacturer’s instructions. The extracted DNA was stored at −20 °C. Quantitative PCRs (qPCRs) were used to determine the relative amount of viral DNA in the treated and control groups. The qPCRs were performed in a Bio-Rad® Real-Time PCR System instrument (Bio-Rad, Hercules, CA, USA) using the SensiFast^TM SYBR Hi-ROX Kit (Bioline, London, UK). The PCR mixture contained 10 µL of 2xSensifast SYBR mix, 0.8 µL of forward and reverse primers, 6.4 µL pf distilled water, and 2 µL of the target DNA. The final 20 µL mixture was used in a program that included an initial denaturing step at 95 °C for 3 min, followed by 40 cycles of 95 °C for 5 s and either 65 °C or 72 °C for 30 s. All the qPCRs were performed in duplicate, and the beta-actin gene of the EPC cells was used as an internal standard. The resulting qPCR data were analyzed by the Bio-Rad CFX Maestro Software. During the experiment, ranavirus major capsid protein forward and reverse primers were used for both the ECV and FV3 viruses. […]"}, "[5]": {"tested_on": "Ictalurid herpesvirus 2 (IcHV-2)", "assay": "qPCR of viral DNA load in infected EPC cells, IcHV-2", "type": "cell-based", "conditions": "800 µM acyclovir, MOI 0.05, 48 h, normalized to beta-actin", "procedure": "as §3, §4"}, "Frog virus 3 (FV3) [6]": {"tested_on": "Frog virus 3 (FV3)", "assay": "qPCR of viral DNA load in infected EPC cells, FV3", "type": "cell-based", "conditions": "800 µM acyclovir, MOI 0.05, 48 h, normalized to beta-actin", "procedure": "as §3, §4"}, "[7]": {"assay": "Solubility of acyclovir in the cell culture medium", "type": "physicochemical", "conditions": "fully supplemented EMEM cell culture medium, crystallization observed at 3200 µM", "procedure": "The following concentrations were prepared for the experiments: 3200 µM, 1600 µM, 800 µM, 400 µM, 200 µM, 100 µM, and 50 µM."}, "CyHV-3": {"tested_on": "CyHV-3", "conditions": "222.02 and 444.04 µM acyclovir; cited from earlier work"}, "IcHV-1": {"tested_on": "IcHV-1", "conditions": "10 µM acyclovir, BB cells; cited from earlier work"}}, "data": [{"compound": "Nc1nc2c(ncn2COCCO)c(=O)[nH]1", "note": "[acyclovir]", "values": [{"measurement": "viability at 3 days, 50 µM", "setting": "in vitro", "result": "113 ± 1.92", "unit": "%"}, {"measurement": "viability at 3 days, 100 µM", "setting": "in vitro", "result": "105 ± 1.48", "unit": "%"}, {"measurement": "viability at 3 days, 200 µM", "setting": "in vitro", "result": "111 ± 2.27", "unit": "%"}, {"measurement": "viability at 3 days, 400 µM", "setting": "in vitro", "result": "110 ± 3.45", "unit": "%"}, {"measurement": "viability at 3 days, 800 µM", "setting": "in vitro", "result": "103 ± 1.41", "unit": "%"}, {"measurement": "viability at 3 days, 1600 µM", "setting": "in vitro", "result": "94.3 ± 1.47", "unit": "%"}, {"measurement": "viability at 3 days, 3200 µM", "setting": "in vitro", "result": "103 ± 1.58", "unit": "%"}, {"measurement": "Decrease of viral load (TCID50/mL titer)", "setting": "[1]", "result": 2500, "unit": "fold"}, {"measurement": "Decrease of viral load (TCID50/mL titer)", "setting": "[2]", "result": 30, "unit": "fold"}, {"measurement": "Decrease of viral load (TCID50/mL titer)", "setting": "Frog virus 3 (FV3) [3]", "result": 11, "unit": "fold"}, {"measurement": "Reduction of viral DNA load (qPCR)", "setting": "[4]", "result": "10^5 fold"}, {"measurement": "Reduction of viral DNA load (qPCR)", "setting": "[5]", "result": "10^4 fold"}, {"measurement": "Reduction of viral DNA load (qPCR)", "setting": "Frog virus 3 (FV3) [6]", "result": "10^3 fold"}, {"measurement": "solubility", "setting": "[7]", "result": 3.2, "unit": "mM"}, {"measurement": "Reduction (CyHV-3)", "setting": "CyHV-3", "result": 98, "unit": "%"}, {"measurement": "Reduction of plaque number", "setting": "IcHV-1", "result": 99, "unit": "%"}]}]}
